# Measured values published in patent publication US7396958B2, “Sulphonamide derivatives, their preparation and their therapeutic application” (Sanofi Aventis, priority 2004, dated 2008).
# Read-outs that look alike come from different tables or passages of the source.
# Columns and labels:
# human orexin 1 receptors = target: T1, human orexin 1 receptors (Homo sapiens, UniProt O43613); test: in vitro binding: displacement of radio-iodinated orexin A on CHO cell membrane preparation; details: membrane preparation of CHO cells expressing human orexin 1 receptors, read-out: IC50 OX 1
# T1 construct: expressed in transfected cells; host or cells: CHO cells (membrane preparation)
# T1 sequence (O43613 1-425): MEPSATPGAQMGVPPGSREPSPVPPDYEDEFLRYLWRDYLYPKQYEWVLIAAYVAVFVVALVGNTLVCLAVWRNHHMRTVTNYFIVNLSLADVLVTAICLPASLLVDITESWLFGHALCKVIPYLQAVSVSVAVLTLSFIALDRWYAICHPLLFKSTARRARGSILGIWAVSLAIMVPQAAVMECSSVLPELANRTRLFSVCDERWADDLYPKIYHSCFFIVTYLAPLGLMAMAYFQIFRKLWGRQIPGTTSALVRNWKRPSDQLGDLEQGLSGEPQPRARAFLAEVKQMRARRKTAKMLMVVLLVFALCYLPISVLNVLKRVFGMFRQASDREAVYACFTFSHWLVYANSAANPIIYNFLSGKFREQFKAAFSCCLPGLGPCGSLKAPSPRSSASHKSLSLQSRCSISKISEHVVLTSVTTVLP
# Experimental: (§1) They were in particular tested as regards their effects. […] This method consists in studying the displacement of radio-iodinated orexin A bound to human orexin 2 receptors expressed in CHO cells. The test is performed on membranes in a Hepes 50 mM, MgCl2 1 mM, CaCl2 25 mM, NaN3 0.025%, bovine serum albumin (BSA) 1% incubation buffer and 100 pM of ligand, for 30 minutes at 25° C. The reaction is quenched by filtration and washing on a Whatman GF/C filter. The non-specific binding is measured in the presence of 10^−6M of human orexin B. The IC50 values (concentration that inhibits 50% of the binding of the radio-iodinated orexin A to its receptors) are low, less than 300 nM, in particular less than 100 nM and more particularly less than 30 nM. The affinity of the compounds according to the invention for the orexin 1 receptors was also studied in a test of in vitro binding according to the same technique using radio-iodinated orexin A as ligand in a membrane preparation of CHO cells expressing the human orexin 1 receptors. The compounds according to the invention show little or no affinity for the orexin 1 receptors.
# orexin 2 receptors [1] = target: T2, orexin 2 receptors (Homo sapiens, UniProt O43614); test: in vitro binding: displacement of radio-iodinated orexin A on CHO cell membranes; parameters: expressed in transfected cells; host or cells: CHO cells (membranes); details: human orexin 2 receptors in CHO cell membranes, 100 pM ligand, 30 minutes at 25° C., read-out: IC50 OX 2
# T2 sequence (O43614 1-444): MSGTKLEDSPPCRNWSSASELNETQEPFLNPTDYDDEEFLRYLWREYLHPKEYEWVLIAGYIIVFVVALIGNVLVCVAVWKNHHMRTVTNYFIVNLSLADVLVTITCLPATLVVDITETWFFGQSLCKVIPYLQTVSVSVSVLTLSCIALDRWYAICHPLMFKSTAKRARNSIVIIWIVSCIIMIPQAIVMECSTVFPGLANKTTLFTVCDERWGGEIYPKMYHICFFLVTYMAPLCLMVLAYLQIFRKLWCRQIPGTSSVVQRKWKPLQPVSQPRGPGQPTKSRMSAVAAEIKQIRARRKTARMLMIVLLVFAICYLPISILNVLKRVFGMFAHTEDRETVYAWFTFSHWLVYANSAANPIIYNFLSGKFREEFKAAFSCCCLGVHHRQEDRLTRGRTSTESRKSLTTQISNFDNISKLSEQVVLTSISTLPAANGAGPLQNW
# Experimental: as §1, with “nM.” for “nM. The affinity of the compounds according to the invention for the orexin 1 receptors was also studied in a test of in vitro binding according to the same technique using radio-iodinated orexin A as ligand in a membrane preparation of CHO cells expressing the human orexin 1 receptors. The compounds according to the invention show little or no affinity for the orexin 1 receptors.”
# orexin 2 receptors [2] = target: T2, orexin 2 receptors; test: measurement of intracellular calcium (FLIPR), antagonist test against orexin B; format: cell-based; details: 30 minutes preincubation before addition of 0.25 nM orexin B, Fluo-4 AM, read-out: Measurement of [Ca^2+]i IC50 OX 2 - FLIPR
# Experimental: The agonist or antagonist nature of the compounds is determined in vitro in a test of measurement of intracellular calcium (FLIPR) on a cell preparation expressing the orexin 2 receptors, according to the general technique described in Sullivan et al., Methods Mol. Biol., 1999, vol. 114, 125-133, using 1 μM of Fluo-4 AM as fluorescent calcium indicator.
IC50 (human orexin 1 receptors),IC50 (orexin 2 receptors [1]),IC50 (orexin 2 receptors [2]),melting point,IC50 (human orexin 1 receptors; unit μM),Structure (SMILES)
,,,151 °C,,"CNC(=O)CN(c1ccc(Cl)cc1C(C)c1ccccc1Cl)S(=O)(=O)c1ccc(OC)c(OC)c1 (centres unmarked) [Compound 187, N^2-{4-chloro-2-[1-(2-chlorophenyl)ethyl]phenyl}-N^2-[(3,4-dimethoxyphenyl)sulfonyl]-N^1-methylglycinamide]"
,19 nM,10 nM,,> 10 µM,"CNC(=O)CN(c1ccc(Cl)cc1C(O)c1ccccc1)S(=O)(=O)c1ccc(OC)c(OC)c1 (centres unmarked) [Compound 137, N^2-{4-chloro-2-[hydroxy(phenyl)methyl]phenyl}-N^2-[(3,4-dimethoxyphenyl)sulfonyl]-N^1-methylglycinamide]"
,,,94.8 °C,,"COc1ccc(S(=O)(=O)N(Cc2nnn(C)n2)c2ccc(Cl)cc2C(O)c2ccccc2Cl)cc1OC (centres unmarked) [Compound 14, N-{4-chloro-2-[(2-chlorophenyl)(hydroxy)methyl]phenyl}-3,4-dimethoxy-N-[(2-methyl-2H-tetrazol-5-yl)methyl]benzenesulfonamide]"
0.446 µM,13 nM,5 nM,,,"CCOC(=O)CN(c1ccc(Cl)cc1C(O)c1ccccc1Cl)S(=O)(=O)c1ccc(OC)c(OC)c1 (centres unmarked) [Compound 1, Ethyl N-{4-chloro-2-[(2-chlorophenyl)(hydroxy)methyl]phenyl}-N-[(3,4-dimethoxyphenyl)sulfonyl]glycinate]"
,,,158.5 °C,,"COC(=O)CN(c1ccc(Cl)cc1C(O)c1ccccc1Cl)S(=O)(=O)c1ccc(OC)c(OC)c1 (centres unmarked) [Compound 21, Methyl N-{4-chloro-2-[(2-chlorophenyl)(hydroxy)methyl]phenyl}-N-[(3,4-dimethoxyphenyl)sulfonyl]glycinate]"

# More lines, now with the values behind:
Structure (SMILES),IC50 (human orexin 1 receptors),IC50 (orexin 2 receptors [1]),IC50 (orexin 2 receptors [2]),melting point,IC50 (human orexin 1 receptors; unit μM)
COc1cccc(S(=O)(=O)N(CC(N)=O)c2ccc(Cl)cc2C(O)c2ccccc2Cl)c1 (centres unmarked) [Compound 30],0.966 µM,82 nM,26 nM,,
"COc1ccc(S(=O)(=O)N(Cc2nccn2C)c2ccc(Cl)cc2Cc2ccccc2Cl)cc1OC [Compound 107, N-[4-chloro-2-(2-chlorobenzyl)phenyl]-3,4-dimethoxy-N-[(1-methyl-1H-imidazol-2-yl)methyl]benzenesulfonamide]",0.899 µM,20 nM,11 nM,,
"COc1ccc(S(=O)(=O)N(CC(N)=O)c2ccc(Cl)cc2C(O)c2cccc(Cl)c2)cc1OC (centres unmarked) [Compound 44, N^2-{4-chloro-2-[(3-chlorophenyl)(hydroxy)methyl]phenyl}-N^2-[(3,4-dimethoxyphenyl)sulfonyl]glycinamide]",,85 nM,54 nM,,> 10 µM
"COc1ccc(N(CC(N)=O)S(=O)(=O)c2ccc(OC)c(OC)c2)c(Cc2ccccc2Cl)c1 [Compound 138, N^2-[2-(2-Chlorobenzyl)-4-methoxyphenyl]-N^2-[(3,4-dimethoxyphenyl)sulfonyl]glycinamide]",4.76 µM,8 nM,11 nM,184.6 °C,
"Cc1ccc(S(=O)(=O)N(CC(N)=O)c2ccc(Cl)cc2C(O)c2ccccc2Cl)cc1C (centres unmarked) [Compound 28, N^2-{4-chloro-2-[(2-chlorophenyl)(hydroxy)methyl]phenyl}-N^2-[(3,4-dimethylphenyl)sulfonyl]glycinamide]",1.5 µM,62 nM,19 nM,,
"CNC(=O)CN(c1ccc(Cl)cc1N(C)c1ccccc1)S(=O)(=O)c1ccc(OC)c(OC)c1 [Compound 124, N^2-{4-chloro-2-[methyl(phenyl)amino]phenyl}-N^2-[(3,4-dimethoxyphenyl)sulfonyl]-N^1-methylglycinamide]",,50 nM,65 nM,,> 10 µM
"COc1ccc(S(=O)(=O)N(Cc2nnnn2C)c2ccc(Cl)cc2Cc2c(F)cccc2F)cc1OC [Compound 152, N-[4-chloro-2-(2,6-difluorobenzyl)phenyl]-3,4-dimethoxy-N-[(1-methyl-1H-tetrazol-5-yl)methyl]benzenesulfonamide]",,,,180.8 °C,
"COc1ccc(S(=O)(=O)N(CC(N)=O)c2cc(Cl)ccc2Cc2ccccc2Cl)cc1OC [Compound 179, N^2-[5-Chloro-2-(2-chlorobenzyl)phenyl]-N^2-[(3,4-dimethoxyphenyl)sulfonyl]glycinamide]",,,,86.4 °C,
"COc1ccc(S(=O)(=O)N(CC(N)=O)c2cc(N(C)C)ccc2Cc2c(F)cccc2F)cc1OC [Compound 202, N^2-[2-(2,6-difluorobenzyl)-5-(dimethylamino)phenyl]-N^2-[(3,4-dimethoxyphenyl)sulfonyl]glycinamide]",1.87 µM,9 nM,7 nM,,
"COc1ccc(S(=O)(=O)N(CC(N)=O)c2c(OC)cccc2-c2ccccc2)cc1OC [Compound 312, N˜2˜-[(3,4-dimethoxyphenyl)sulfonyl]-N˜2˜-(3-methoxybiphenyl-2-yl)glycinamide]",,,,86.8 °C,
"COc1ccc(S(=O)(=O)N(CC(N)=O)c2ccc(Cl)cc2N(C)c2ccccc2)cc1OC [Compound 92, N^2-{4-chloro-2-[methyl(phenyl)amino]phenyl}-N^2-[(3,4-dimethoxyphenyl)sulfonyl]glycinamide]",,,,192.5 °C,
